From patent publication US9486507B2, “Pro-coagulant compounds and methods of use thereof” (priority 2011, dated 2016)
pEC50: −log10 of the molar value. Square brackets hold non-standard residues; d marks the D form. Ends that are not written are not given here.

What follows are substances tested on FVIII deficient human plasma (assay: Thrombin generation assay (TGA) in FVIII-deficient plasma). Conditions: 0.1 U/mL FVIII; compound 7 100-6.3 uM, compounds 8 and 9 50-3.1 uM.
Assay type: biochemical

| Substance | TGA activity in the presence of FVIII |
| --- | --- |
| GWKPFLWDPRVLLSSGWYGRG [Compound 7, reference compound] | competes with FVIII |
| PWRRFWAWNPRSLALSTWFGRGCD [Compound 8, reference compound] | competes with FVIII |
| GWKPFLWDPRVLLSSGWYGRGGGGGWKPFLWDPRVLLSSGWYGRG [Compound 9, reference compound] | competes with FVIII |

Same assay, conditions: HRF FVIII-deficient plasma (1); 2.5 μM

| Substance | Thrombin Above Baseline (nM) |
| --- | --- |
| PRIrTVGPGSrSASGKLTCLASYCWLFWTGIA (PRI[dR]TVGPGS[dR]SASGKLTCLASYCWLFWTGIA; not fully specified; printed as PRIrTVGPGSrSASGKLTCLASYCWLFWTGIA; cysteine pairing not given here) | ++ (11-20 nM (1) or 30-59 nM (2) (++)) |

Same assay, conditions: HRF FVIII-deficient plasma (1); 2.5 μM; listed as PRIRTVGPGSRSASGKLTCLASYCWLFWTGIA

| Substance | Thrombin Above Baseline (nM) |
| --- | --- |
| PRIrTVGPGSrSASGKLTCLASYCWLFWTGIA (PRI[dR]TVGPGS[dR]SASGKLTCLASYCWLFWTGIA; not fully specified; printed as PRIrTVGPGSrSASGKLTCLASYCWLFWTGIA; cysteine pairing not given here) | + (1-10 nM (1) or 1-29 nM (2) (+)) |

Same assay, conditions: HRF FVIII-deficient plasma (1); 5 μM

| Substance | Thrombin Above Baseline (nM) |
| --- | --- |
| PRIrTVGPGSrSASGKLTCLASYCWLFWTGIA (PRI[dR]TVGPGS[dR]SASGKLTCLASYCWLFWTGIA; not fully specified; printed as PRIrTVGPGSrSASGKLTCLASYCWLFWTGIA; cysteine pairing not given here) | +++ (21-30 nM (1) or 60-90 nM (2) (+++)) |

Same assay, conditions: HRF FVIII-deficient plasma (1); 5 μM; listed as PRIRTVGPGSRSASGKLTCLASYCWLFWTGIA

| Substance | Thrombin Above Baseline (nM) |
| --- | --- |
| PRIrTVGPGSrSASGKLTCLASYCWLFWTGIA (PRI[dR]TVGPGS[dR]SASGKLTCLASYCWLFWTGIA; not fully specified; printed as PRIrTVGPGSrSASGKLTCLASYCWLFWTGIA; cysteine pairing not given here) | ++ (11-20 nM (1) or 30-59 nM (2) (++)) |

Same assay, conditions: HRF FVIII-deficient plasma (1); 10 μM

| Substance | Thrombin Above Baseline (nM) |
| --- | --- |
| PRIrTVGPGSrSASGKLTCLASYCWLFWTGIA (PRI[dR]TVGPGS[dR]SASGKLTCLASYCWLFWTGIA; not fully specified; printed as PRIrTVGPGSrSASGKLTCLASYCWLFWTGIA; cysteine pairing not given here) | +++ (21-30 nM (1) or 60-90 nM (2) (+++)) |

Same assay, conditions: HRF FVIII-deficient plasma (1); 20 μM

| Substance | Thrombin Above Baseline (nM) |
| --- | --- |
| PRIrTVGPGSrSASGKLTCLASYCWLFWTGIA (PRI[dR]TVGPGS[dR]SASGKLTCLASYCWLFWTGIA; not fully specified; printed as PRIrTVGPGSrSASGKLTCLASYCWLFWTGIA; cysteine pairing not given here) | +++ (21-30 nM (1) or 60-90 nM (2) (+++)) |

Same assay, conditions: Precision Biologics FVIII-deficient plasma (2), first Baseline (2) series; 2.5 μM

| Substance | Thrombin Above Baseline (nM) |
| --- | --- |
| PSIRTVGPGSRSASGKLTCLASYCWLFWTGIA | + (1-10 nM (1) or 1-29 nM (2) (+)) |
| PRIrTVGPGSrSASGKLTCLASYCWLFWTGIA (PRI[dR]TVGPGS[dR]SASGKLTCLASYCWLFWTGIA; not fully specified; printed as PRIrTVGPGSrSASGKLTCLASYCWLFWTGIA; cysteine pairing not given here) | ++ (11-20 nM (1) or 30-59 nM (2) (++)) |

Same assay, conditions: Precision Biologics FVIII-deficient plasma (2), first Baseline (2) series; 5 μM

| Substance | Thrombin Above Baseline (nM) |
| --- | --- |
| PSIRTVGPGSRSASGKLTCLASYCWLFWTGIA | + (1-10 nM (1) or 1-29 nM (2) (+)) |
| PRIrTVGPGSrSASGKLTCLASYCWLFWTGIA (PRI[dR]TVGPGS[dR]SASGKLTCLASYCWLFWTGIA; not fully specified; printed as PRIrTVGPGSrSASGKLTCLASYCWLFWTGIA; cysteine pairing not given here) | +++ (21-30 nM (1) or 60-90 nM (2) (+++)) |

Same assay, conditions: Precision Biologics FVIII-deficient plasma (2), first Baseline (2) series; 10 μM

| Substance | Thrombin Above Baseline (nM) |
| --- | --- |
| PSIRTVGPGSRSASGKLTCLASYCWLFWTGIA | + (1-10 nM (1) or 1-29 nM (2) (+)) |
| PRIrTVGPGSrSASGKLTCLASYCWLFWTGIA (PRI[dR]TVGPGS[dR]SASGKLTCLASYCWLFWTGIA; not fully specified; printed as PRIrTVGPGSrSASGKLTCLASYCWLFWTGIA; cysteine pairing not given here) | +++ (21-30 nM (1) or 60-90 nM (2) (+++)) |

What follows are substances tested against FIXa (Homo sapiens, UniProt P00740) (assay: FXa generation assay with human FIXa). Conditions: FXa generation assay using human FIXa; class symbols.
Assay type: biochemical
Design: purchased Haematologic Technologies
Excerpt: FXa generation was utilized to assess the capability of the compounds of the present disclosure to enhance the catalytic activities of FIXa and/or FVIIa.
To measure the catalytic activity of FIXa, FIXa was mixed with FX and phospholipids in the presence of calcium chloride. Under these conditions FIXa cleaves the zymogen FX into the active form FXa.
The generation of FXa is monitored by the change in absorbance of the reaction at 405 nm due to the presence of a cleavable FXa chromogenic substrate (S-2765; Z-D-Arg-Gly-Arg-pNA; cleavage of p-nitroaniline). […] The kit contains all the FXa generation components, however, FIXa and FX obtained from this kit are from a bovine origin and were replaced with purified human FIXa or human FVIIa and human FX (Haematologic Technologies).
The assay was also modified to enhance the screening throughput. Instead of the sequential addition, all the assay components were mixed and added simultaneously to the purified compound to be assayed. A 125 μl reaction mix of the assay components was prepared in the buffer supplied by the manufacturer (50 mM Tris 7.3, and 1% BSA). […] The reaction mix (125 ul) was then added to 25 ul of compound diluted in water in a Costar-3651 flat bottom 96-well plate. […] The absorbance was monitored over a period of 1 hour at 405 nm using a plate reader (Synergy 2, Biotek).
The 405 nm absorbance data were then analyzed to obtain the slope of the first derivative which reflects the rate of change in absorbance. The first derivative slope data for each compound concentration were plotted against the compound concentration and fitted to a four-parameter equation to obtain the EC50 and Vmax values for each compound tested.

FIXa, sequence (P00740 47-191 limits assumed): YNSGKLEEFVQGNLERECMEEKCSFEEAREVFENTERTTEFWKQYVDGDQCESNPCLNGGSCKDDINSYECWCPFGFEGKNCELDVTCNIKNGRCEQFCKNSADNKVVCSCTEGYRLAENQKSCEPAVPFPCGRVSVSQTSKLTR
FIXa, sequence (P00740 227-461 limits assumed): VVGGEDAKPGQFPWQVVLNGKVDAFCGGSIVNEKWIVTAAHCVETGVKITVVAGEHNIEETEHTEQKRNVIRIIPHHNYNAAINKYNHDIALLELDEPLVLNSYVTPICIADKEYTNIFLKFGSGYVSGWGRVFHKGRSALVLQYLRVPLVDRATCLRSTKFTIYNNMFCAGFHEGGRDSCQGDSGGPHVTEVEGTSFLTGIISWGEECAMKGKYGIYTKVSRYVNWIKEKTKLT

| Substance | Vmax | pEC50 |
| --- | --- | --- |
| QLTCLASECGLS | (+) ((+)<1) | – |
| KRYVYRQMCLVSACWLLQLGYA | (++) ((++) 1-2) | – |
| KLTCLASYCWLK | (+) ((+)<1) | – |
| VSGTGKLTCLASYCWLFQLGSF | (++) ((++) 1-2) | – |
| GCSSDKLTARTRHCSMFQPLSV | (+) ((+)<1) | – |
| KLTCLVSYCWLF | (+++) ((+++)>2) | 6.00 to 6.30 |
| VSGTGRLTCVASYCWMFQLGIF | (++) ((++) 1-2) | – |
| SLADTQLTWLARQYWLSVSEGS | (+) ((+)<1) | – |
| QDGVEKLTCLASYCWRFGDHGA | (+) ((+)<1) | – |
| NPTCQASYCQLF | (+) ((+)<1) | – |
| ERYRLDMTCMASQCWQFPPAAG | (++) ((++) 1-2) | – |
| RFQTTQLTCLGSASCLFNLSVR | (+) ((+)<1) | – |
| FPIQHKLTCLSSDCWLFPSHSY | (+) ((+)<1) | – |
| QGQARKLACLASYCWLFPSSAG | (+) ((+)<1) | – |
| KLKCLSSECQLL | (+) ((+)<1) | – |
| QQRQIKMSCLASYCWLFGSIPW | (++) ((++) 1-2) | 6.00 to 6.30 |
| RGRSAKLRCLASYCWLFFGVIL | (+++) ((+++)>2) | – |
| EQTCLASYCWLF | (+) ((+)<1) | – |
| QLTCLASYCGGV | (+) ((+)<1) | – |

| Substance | Vmax | pEC50 |
| --- | --- | --- |
| KLTCLASYCFLF | (++++) ((++++)>3) | 6.00 to 6.30 |
| VGEHRKISCVASNCQLLRSGLA | (+) ((+)<1) | – |
| SGGSGKLTCLASYCWPFGSQVR | (+) ((+)<1) | – |
| KLTCLASYCQLF | (++++) ((++++)>3) | 6.00 to 6.30 |
| FGQPSRLTCLASYCWLFGNLVT | (++) ((++) 1-2) | – |
| KLTCLASYCLLF | (+++) ((+++)>2) | 6.00 to 6.30 |
| RSTVSQMRCLASYCWLFPALVS | (++) ((++) 1-2) | – |
| KLTCLASYCWIF | (+++) ((+++)>2) | 6.00 to 6.30 |
| GFGSRKLTSLASYGWLIQDRLP | (+) ((+)<1) | – |
| VSGTGRLTCVASYCWMFQLGSF | (++) ((++) 1-2) | – |
| NLTGRASYGWLP | (+) ((+)<1) | – |
| RGRSAKLTCLASYCWLFFGVIL | (+++) ((+++)>2) | – |
| AQLRRKLTCLASYCWLFGFFSP | (++) ((++) 1-2) | – |
| KLTCLGSYCWLF | (+++) ((+++)>2) | – |
| KLTCLSSYCWLF | (+++) ((+++)>2) | – |
| KLTCLASYCWYF | (+++) ((+++)>2) | – |
| APPGGKRMCLVSGCQLFPWSAS | (+) ((+)<1) | – |
| KLTCLASQCWLF | (+++) ((+++)>2) | – |
| MLTCIASYCQLG | (+) ((+)<1) | – |

| Substance | Vmax | pEC50 |
| --- | --- | --- |
| HDSLDQLTCLASVCQLASMGAR | (+) ((+)<1) | – |
| TLLYQNRTCLASYCWLFDKRSV | (+) ((+)<1) | – |
| LLHAQKLSCLASYCWVFDAEWD | (+) ((+)<1) | – |
| MEGTRQPTCLASYCSPFQYVAP | (+) ((+)<1) | – |
| VARASKVECLASYCQLFVGGEV | (+) ((+)<1) | – |
| SCVKHELKCLSSDSRLFSAVQR | (+) ((+)<1) | – |
| AWPYHKPTCLASQCWQFLAQGS | (+) ((+)<1) | – |
| GASSDKLTCRTRHCSMFQPLSV | (+) ((+)<1) | – |
| DAGPNKLRCLASYCQLFGGGHA | (+) ((+)<1) | – |
| DAKVAKLRCLGSQCWLLQYAPG | (++) ((++) 1-2) | – |
| KLSCQAGQCWVF | (+++) ((+++)>2) | – |
| RQLWNKLTCLASYCALIGLSGT | (++) ((++) 1-2) | – |
| RRCPGKLQALASYCWLFWTGIA | (+++) ((+++)>2) | – |
| KGRCLTSHCWLF | (+) ((+)<1) | – |
| QLPCLASYCGLF | (+) ((+)<1) | – |
| KKTCLASYCWLF | (++) ((++) 1-2) | – |
| YARDSTLTCQARTCQLVDYLGP | (+) ((+)<1) | – |
| LRTQPKVTGLASCSGLVNCSRD | (+) ((+)<1) | – |

Same assay, conditions: FXa generation assay, 10 nM hFIXa, 100 nM hFX; class symbols

| Substance | Vmax |
| --- | --- |
| PSIRTVGPGSRSASGKLTCLASYCWLFWTGIA | (++++) ((++++)>3) |
